Measurements taken from patent publication US20110244059A1, “INHIBITING OBESITY PROGRESSION BY INHIBITING ADIPOCYTE DIFFERENTIATION WITH A PRE-ADIPOCYTE AUTOPHAGY INHIBITOR” (The University of Medicine and Dentistry of New Jersey, priority 2008, published 2011).
“Also recorded” adds a separate entry of the source.

Experiments:
wild type primary MEFs = experiment: Adipocyte differentiation (adipogenesis) of primary MEFs under standard induction protocol; format: cell-based, mouse
Experimental: The MEFs were prepared from 13.5 days embryos of atg5+/+ and atg5−/− mice according to standard protocol. Briefly, whole mouse embryos were removed from the uterus, dissected and the head, tail, limbs and all internal organs were removed. The carcasses were minced, washed in PBS, and then incubated in 2 ml 0.05% Trypsin-EDTA (Invitrogen, CA, US) at 37° C. for 20 min with shaking. The digested cells were plated on a 100-mm dish in Dulbecco's modified Eagle's medium (DMEM, Invitrogen) with 10% fetal bovine serum (FCS, Invitrogen) and incubated at 37° C. in humidified air containing 5% CO2. Cells were grown for 24 hr until the culture was 90% confluent, and then split and passed on. The primary MEF cells of passage three to five were treated under standard protocol to induce adipocyte differentiation (Banks, A. S., et al. Deletion of SOCS7 leads to enhanced insulin action and enlarged islets of Langerhans. J. Clin. Invest. September 2005 115, 2462-2471). Briefly, cells were seeded in 6-well plates with cover slips and propagated to confluence. 48 hours later, which was designated as Day 0, differentiation was initiated using Dulbecco's Modified Eagle's Medium (DMEM) containing 10% fetal bovine serum, 5 μg/ml insulin, 1 μM dexamethasone, 0.5 mM 3-Isobutyl-1-methylxanthine (IBMX), and 10 μM troglitazone (Sigma, MO, US). After 2-day initiation, the media was replaced with a maintenance medium (DMEM containing 10% fetal bovine serum, 5 μg/ml insulin, and 10 μM troglitazone). Fresh maintenance medium was replaced every 2 days thereafter. Cells collected at various time points, up to maximal 14 days.
The medium was replaced with maintenance medium including 10 μM CQ two days after initiation. Fresh maintenance medium with 10 μM CQ was replaced every two days thereafter.
Live cells were observed under the Olympus IX70 microscope with relief contrast objectives (10× or 40×). […] For time-lapse microscopy, cells were plated on tissue culture plates and monitored using Olympus IX70 microscope with the 37° C. and 5% CO2 environmental chamber using 10× objectives. Images were collected with CCD video camera (Model MicroMax; Princeton Instruments, Trenton, N.J., US) at 5 min intervals and saved as images stacks using IPLab software (BD Biosciences Bioimaging, Rockville, Md., US). Images were processed using Image J software (NIH, Bethesda, Md., US).
Bodipy: The differentiating cells were stained with BODIPY 493/503 (Invitrogen, CA, US) as described (DiDanato, D. et al. Fixation methods for the study of lipid droplets by immunofluorescence microscopy. J Histochem. Cytochem June 2003 51, 773-780; Gocze, P. M. et al. Factors underlying the variability of lipid droplet fluorescence in MA-10 Lydig tumor cells. Cytometry 17, 151-158.) Briefly, the cell culture slides were washed once with phosphate-buffered saline (PBS), fixed with 3% paraformaldehyde in PBS for 30 minutes at room temperature, and washed 4 times with PBS, and then stained with 10 μg/ml Bodipy 493/503 at room temperature for 15 minutes in darkness, mounted with Vectashield Mounting Medium (Vector Laboratories, CA, US). Oil Red-O: The cells on cover slides were stained with Oil Red-O (Sigma, MO, US) according to Kim et al with some modification (Kim, Y. K., et al. Reversine stimulates adipocyte differentiation and downregulates Akt and p70(s6k) singaling pathways in 3T3-L1 cells. Biochem Biophys Res Commun 358, 553-558). Oil Red-O was dissolved in isopropanol to 3.5 mg/ml. Before using, dilute 6 parts Oil Red-O stock with 4 parts H2O, sit at room temp for 20 min, and filter through 0.2 μm filter. The slides were washed once with PBS, fixed with 4% paraformaldehyde (Fisher Scientific, PA, US) buffered with PBS for 1 hr, and then washed twice with 60% isopropanol for 5 minutes each. Cells were then air dried and stained with Oil Red-O working solution for 30 minutes at 25° C.

Compound	viability of the undifferentiated cells (wild type MEFs)	adipocyte differentiation of primary MEFs (wild type primary MEFs; 1 micro molar hydroxychloroquine, lesser degree than 10 micro molar)	adipocyte differentiation of primary MEFs (wild type primary MEFs; 5 micro molar hydroxychloroquine, lesser degree than 10 micro molar)	adipocyte differentiation of primary MEFs (wild type primary MEFs; 10 micro molar hydroxychloroquine during differentiation induction)	fate of cells that did differentiate (wild type primary MEFs; hydroxychloroquine treatment, 10 micro molar)	cytotoxic effect on MEFs (Tunel assay) (wild type MEFs; 10 μM chloroquine for 4 days, FIG. 9D)	lipid accumulation, Bodipy 493/503 staining (wild type primary MEFs; 10 μM chloroquine, 14 days after differentiation induction, FIG. 9B)	lipid accumulation, Oil Red-O staining (spectrometry) (wild type primary MEFs; 10 μM chloroquine, 14 days after differentiation induction, FIG. 9C)
CCN(CCO)CCCC(C)Nc1ccnc2cc(Cl)ccc12 (centres unmarked) [hydroxychloroquine]	not apparently affected	had inhibitory effect on blocking adipocyte differentiation	had inhibitory effect on blocking adipocyte differentiation	stalled at the initial stage of adipocyte differentiation	eventually died	–	–	–
CCN(CC)CCCC(C)Nc1ccnc2cc(Cl)ccc12 (centres unmarked) [chloroquine]	–	–	–	–	–	little cytotoxic effect; also recorded: non-toxic	same inhibitory effect	same inhibitory effect
